# pEC50, pIC50: −log10 of the molar value.
# Test system: Coronary artery
# Experiment: Vasorelaxant activity in dog coronary arteries
# Format: functional, tissue-based
# Settings: Canis lupus familiaris
row,Structure (SMILES),pEC50
1,Oc1nc2cccnc2n2ccnc12,4.96
2,CCc1nccn1-c1ncnc2c1nc(O)c1cnc(CC)n12,4.23

# Test system: Staphylococcus aureus
# Experiment: Antibacterial activity against Staphylococcus aureus assessed as diameter zone of inhibition
# Format: functional
# Settings: not given
row,Structure (SMILES),diameter of the inhibition zone (DIZ) [mm]
1,O=c1[nH]c2ccccc2nc1Cc1nnc(S)o1,11
2,O=C(CC1=NC2CCCCC2NC1=O)NNC(=S)Nc1ccccc1 (stereo not given),16

# Test system: MRC5
# Experiment: Antiproliferative activity against human MRC5 cells
# Format: functional, cell-based
# Settings: not given
row,Structure (SMILES),pIC50
1,O=C(/C=C/c1ccccc1)/C=C1/Nc2ccccc2NC1=O,3.76
2,C=C(C)CCC(=O)/C=C1/Nc2ccccc2NC1=O,3.76
3,COc1ccc(C(=O)Nc2cccc(C(=O)/C=C3/Nc4ccccc4NC3=O)c2)cc1,3.74

# Test system: Escherichia coli
# Experiment: Antibacterial activity against Escherichia coli assessed as diameter zone of inhibition
# Format: functional
# Settings: not given
row,Structure (SMILES),diameter of the inhibition zone (DIZ) [mm]
1,O=C(CC1=NC2CCCCC2NC1=O)NNC(=S)Nc1ccccc1 (stereo not given),12

# Biological target: not listed separately
# Experiment: Inhibition of cGMP-dependent 3',5'-cyclic phosphodiesterase (unknown origin)
# Set-up: species or system Homo sapiens
# Settings: not given
row,Structure (SMILES),pIC50
1,Oc1nc2cccnc2n2ccnc12,4.57
2,CCc1nccn1-c1ncnc2c1nc(O)c1cnc(CC)n12,4.85

# Test system: LS174T
# Experiment: Antiproliferative activity against human LS174T cells
# Format: functional, cell-based
# Settings: not given
row,Structure (SMILES),pIC50
1,O=C(/C=C/c1ccccc1)/C=C1/Nc2ccccc2NC1=O,4.72
2,C=C(C)CCC(=O)/C=C1/Nc2ccccc2NC1=O,4.47
3,COc1ccc(C(=O)Nc2cccc(C(=O)/C=C3/Nc4ccccc4NC3=O)c2)cc1,4.78

# Test system: Bacillus subtilis
# Experiment: Antibacterial activity against Bacillus subtilis assessed as diameter zone of inhibition
# Format: functional
# Settings: not given
row,Structure (SMILES),diameter of the inhibition zone (DIZ) [mm]
1,O=c1[nH]c2ccccc2nc1Cc1nnc(S)o1,10
2,O=C(CC1=NC2CCCCC2NC1=O)NNC(=S)Nc1ccccc1 (stereo not given),18

# Test system: A549
# Experiment: Antiproliferative activity against human A549 cells
# Format: functional, cell-based
# Settings: not given
row,Structure (SMILES),pIC50
1,O=C(/C=C/c1ccccc1)/C=C1/Nc2ccccc2NC1=O,4.65
2,C=C(C)CCC(=O)/C=C1/Nc2ccccc2NC1=O,4.06
3,COc1ccc(C(=O)Nc2cccc(C(=O)/C=C3/Nc4ccccc4NC3=O)c2)cc1,4.39

# Biological target: 3',5'-cyclic phosphodiesterase
# Experiment: Inhibition of cAMP-specific 3',5'-cyclic phosphodiesterase (unknown origin)
# Format: protein assay, Homo sapiens
# Settings: not given
row,Structure (SMILES),IC50 [µM]
1,Oc1nc2cccnc2n2ccnc12,44
2,CCc1nccn1-c1ncnc2c1nc(O)c1cnc(CC)n12,> 100

# Test system: Pyricularia grisea
# Experiment: Antifungal activity against Magnaporthe grisea GD08-T19 at 50 ug/ml
# Format: functional
# Settings: dose 50 µg/ml
row,Structure (SMILES),Activity [%]
1,Cn1c(=O)c(C(CCCOC(=O)c2cccs2)CC(F)(F)F)nc2ccccc21 (stereo not given),23
2,Cn1c(=O)c(C(CCCNC(=O)c2ccc(OC(F)(F)F)cc2)CC(F)(F)F)nc2ccccc21 (stereo not given),49
3,Cc1ccc(S(=O)(=O)NCCCC(CC(F)(F)F)c2nc3ccccc3n(C)c2=O)cc1 (stereo not given),23
4,Cn1c(=O)c(C(CCCOc2cc(=O)oc3ccccc23)CC(F)(F)F)nc2ccccc21 (stereo not given),23

# Test system: Pyricularia grisea
# Experiment: Antifungal activity against Magnaporthe grisea GD08-T19 assessed as diameter zone of inhibition
# Format: functional
# Settings: not given
row,Structure (SMILES),diameter of the inhibition zone (DIZ) [mm]
1,Cn1c(=O)c(C(CCCOC(=O)c2cccs2)CC(F)(F)F)nc2ccccc21 (stereo not given),47
2,Cn1c(=O)c(C(CCCNC(=O)c2ccc(OC(F)(F)F)cc2)CC(F)(F)F)nc2ccccc21 (stereo not given),32
3,Cc1ccc(S(=O)(=O)NCCCC(CC(F)(F)F)c2nc3ccccc3n(C)c2=O)cc1 (stereo not given),47
4,Cn1c(=O)c(C(CCCOc2cc(=O)oc3ccccc23)CC(F)(F)F)nc2ccccc21 (stereo not given),48

# Test system: Mesenteric vein
# Experiment: Vasorelaxant activity in dog mesenteric veins
# Format: functional, tissue-based
# Settings: Canis lupus familiaris
row,Structure (SMILES),pEC50
1,Oc1nc2cccnc2n2ccnc12,5.00
2,CCc1nccn1-c1ncnc2c1nc(O)c1cnc(CC)n12,4.64

# Test system: Papillary muscle
# Experiment: Positive inotropic activity in ferret papillary muscle assessed as contractile force measured as CFC20
# Format: functional, Mustela putorius furo
# Settings: not given
row,Structure (SMILES),Activity [µM]
1,Oc1nc2cccnc2n2ccnc12,2.2
2,CCc1nccn1-c1ncnc2c1nc(O)c1cnc(CC)n12,>100

# Test system: HeLa
# Experiment: Antiproliferative activity against human HeLa cells
# Format: functional, cell-based
# Settings: not given
row,Structure (SMILES),pIC50
1,O=C(/C=C/c1ccccc1)/C=C1/Nc2ccccc2NC1=O,4.78
2,C=C(C)CCC(=O)/C=C1/Nc2ccccc2NC1=O,4.60
3,COc1ccc(C(=O)Nc2cccc(C(=O)/C=C3/Nc4ccccc4NC3=O)c2)cc1,4.98
